pKi: −log10 of the molar value. Residues, ends and D or L forms follow the SMILES beside them.
Columns and labels:
[1] = molecular target: T1, Galanin receptor type 3 (Homo sapiens, UniProt O60755)
T1 sequence (O60755 whole entry): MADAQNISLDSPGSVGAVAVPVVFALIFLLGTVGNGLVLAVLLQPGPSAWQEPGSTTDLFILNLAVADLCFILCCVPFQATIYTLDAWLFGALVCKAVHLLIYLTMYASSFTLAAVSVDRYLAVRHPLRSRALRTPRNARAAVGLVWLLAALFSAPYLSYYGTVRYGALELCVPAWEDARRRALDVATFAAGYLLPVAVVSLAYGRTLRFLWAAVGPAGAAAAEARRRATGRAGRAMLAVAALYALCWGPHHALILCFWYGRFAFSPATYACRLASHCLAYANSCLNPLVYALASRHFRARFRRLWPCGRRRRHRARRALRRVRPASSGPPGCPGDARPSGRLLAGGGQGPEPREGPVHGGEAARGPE

[2] = molecular target: T2, Galanin receptor type 3 (Rattus norvegicus, UniProt O88626)
T2 sequence (O88626 whole entry): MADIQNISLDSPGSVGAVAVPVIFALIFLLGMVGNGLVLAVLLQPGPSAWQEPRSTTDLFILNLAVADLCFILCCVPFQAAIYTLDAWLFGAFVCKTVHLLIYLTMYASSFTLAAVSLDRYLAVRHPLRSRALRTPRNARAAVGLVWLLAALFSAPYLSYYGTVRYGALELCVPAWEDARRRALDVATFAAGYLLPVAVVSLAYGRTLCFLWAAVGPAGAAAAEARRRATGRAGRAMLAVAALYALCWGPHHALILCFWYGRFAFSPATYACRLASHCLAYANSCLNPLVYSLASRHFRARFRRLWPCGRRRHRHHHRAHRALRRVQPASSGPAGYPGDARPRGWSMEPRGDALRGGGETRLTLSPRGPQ

[3] = molecular target: T3, Galanin receptor type 2 (Rattus norvegicus, UniProt O08726)
T3 sequence (O08726 whole entry): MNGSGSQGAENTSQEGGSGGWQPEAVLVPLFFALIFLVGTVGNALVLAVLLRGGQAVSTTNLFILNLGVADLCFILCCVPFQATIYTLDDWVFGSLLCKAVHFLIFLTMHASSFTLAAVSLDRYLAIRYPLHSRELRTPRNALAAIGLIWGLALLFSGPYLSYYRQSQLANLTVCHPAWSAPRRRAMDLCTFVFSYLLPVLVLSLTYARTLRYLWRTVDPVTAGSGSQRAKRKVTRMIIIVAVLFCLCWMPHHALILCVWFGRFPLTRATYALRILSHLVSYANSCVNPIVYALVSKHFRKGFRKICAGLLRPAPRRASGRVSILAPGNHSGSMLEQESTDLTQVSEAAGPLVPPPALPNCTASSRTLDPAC

A pKi [1] of 7.84 and a pKi [2] of 8.68 were found for `CC(C)C[C@H](NC(=O)[C@H](CC(C)C)NC(=O)[C@H](Cc1ccc(O)cc1)NC(=O)CNC(=O)[C@H](C)NC(=O)[C@H](CO)NC(=O)[C@H](CC(N)=O)NC(=O)[C@H](CC(C)C)NC(=O)[C@@H](NC(=O)[C@H](Cc1c[nH]c2ccccc12)NC(=O)CN)[C@@H](C)O)C(=O)NCC(=O)N1CCC[C@H]1C(=O)N1CCC[C@H]1C(=O)N1CCC[C@H]1C(=O)NCC(=O)N[C@@H](Cc1ccccc1)C(=O)N[C@@H](CO)C(=O)N1CCC[C@H]1C(=O)N[C@@H](Cc1ccccc1)C(=O)N[C@@H](CCCN=C(N)N)C(N)=O` in this work.

A pKi [3] of 9.00, a pKi [1] of 7.40 and a pKi [2] of 7.98 were found for `COc1ccccc1N(CCOc1ccc(C)cc1)C(=O)CN1CCCCC1` [CAS_3043476] in this work.

A pKi [3] of 9.25 and a pKi [1] of 8.09 were found for `CC(C)C[C@H](NC(=O)[C@H](CC(C)C)NC(=O)[C@@H](Cc1c[nH]c2ccccc12)NC(=O)[C@H](Cc1ccccc1)NC(=O)[C@@H](Cc1c[nH]c2ccccc12)NC(=O)[C@H](CCC(N)=O)NC(=O)[C@H](CCC(N)=O)NC(=O)[C@@H]1CCCN1C(=O)[C@H](CCCCN)NC(=O)[C@@H]1CCCN1C(=O)[C@@H](CCCN=C(N)N)NC(=O)[C@@H]1CCCN1C(=O)CNC(=O)[C@H](CC(C)C)NC(=O)[C@H](CC(C)C)NC(=O)[C@H](Cc1ccc(O)cc1)NC(=O)CNC(=O)[C@H](C)NC(=O)[C@H](CO)NC(=O)[C@H](CC(N)=O)NC(=O)[C@H](CC(C)C)NC(=O)[C@@H](NC(=O)[C@H](Cc1c[nH]c2ccccc12)NC(=O)CN)[C@@H](C)O)C(N)=O` [Gal(1-13)-Std I] (HELM PEPTIDE1{G.W.T.L.N.S.A.G.Y.L.L.G.P.[dR].P.K.P.Q.Q.[dW].F.[dW].L.L.[am]}$$$$V2.0) in this work.

A pKi [2] of 8.35 was found for `CC(C)C[C@H](NC(=O)[C@H](CC(C)C)NC(=O)[C@@H](Cc1c[nH]c2ccccc12)NC(=O)[C@H](Cc1ccccc1)NC(=O)[C@@H](Cc1c[nH]c2ccccc12)NC(=O)[C@H](CCC(N)=O)NC(=O)[C@H](CCC(N)=O)NC(=O)[C@@H]1CCCN1C(=O)[C@H](CCCCN)NC(=O)[C@@H]1CCCN1C(=O)[C@@H](CCCNC(=N)N)NC(=O)[C@@H]1CCCN1C(=O)CNC(=O)[C@H](CC(C)C)NC(=O)[C@H](CC(C)C)NC(=O)[C@H](Cc1ccc(O)cc1)NC(=O)CNC(=O)[C@H](C)NC(=O)[C@H](CO)NC(=O)[C@H](CC(N)=O)NC(=O)[C@H](CC(C)C)NC(=O)[C@@H](NC(=O)[C@H](Cc1c[nH]c2ccccc12)NC(=O)CN)[C@@H](C)O)C(N)=O` [Gal(1-13)-Std I] (HELM PEPTIDE1{G.W.T.L.N.S.A.G.Y.L.L.G.P.[dR].P.K.P.Q.Q.[dW].F.[dW].L.L.[am]}$$$$V2.0) in this work.

A pKi [1] of 6.00 was found for `CC[C@H](C)[C@H](NC(=O)[C@H](C)NC(=O)[C@H](Cc1c[nH]cn1)NC(=O)[C@@H]1CCCN1C(=O)CNC(=O)[C@H](CC(C)C)NC(=O)[C@H](CC(C)C)NC(=O)[C@H](Cc1ccc(O)cc1)NC(=O)CNC(=O)[C@H](C)NC(=O)[C@H](CO)NC(=O)[C@H](CC(N)=O)NC(=O)[C@H](CC(C)C)NC(=O)[C@@H](N)[C@@H](C)O)C(=O)N[C@@H](CC(=O)O)C(=O)N[C@@H](CC(N)=O)C(=O)N[C@@H](Cc1c[nH]cn1)C(=O)N[C@@H](CCCNC(=N)N)C(=O)N[C@@H](CO)C(=O)N[C@@H](Cc1ccccc1)C(=O)N[C@@H](Cc1c[nH]cn1)C(=O)N[C@@H](CC(=O)O)C(=O)N[C@@H](CCCCN)C(=O)N[C@@H](Cc1ccc(O)cc1)C(=O)NCC(=O)N[C@@H](CC(C)C)C(=O)N[C@@H](C)C(N)=O` [Galanin (3-29), porcine] in this work.

A pKi [3] of 8.87, a pKi [1] of 7.91 and a pKi [2] of 8.48 were found for `CC[C@H](C)[C@H](NC(=O)[C@H](C)NC(=O)[C@H](Cc1cnc[nH]1)NC(=O)[C@@H]1CCCN1C(=O)CNC(=O)[C@H](CC(C)C)NC(=O)[C@H](CC(C)C)NC(=O)[C@H](Cc1ccc(O)cc1)NC(=O)CNC(=O)[C@H](C)NC(=O)[C@H](CO)NC(=O)[C@H](CC(N)=O)NC(=O)[C@H](CC(C)C)NC(=O)[C@@H](NC(=O)[C@H](Cc1c[nH]c2ccccc12)NC(=O)CN)[C@@H](C)O)C(=O)N[C@@H](CC(=O)O)C(=O)N[C@@H](CC(N)=O)C(=O)N[C@@H](Cc1cnc[nH]1)C(N)=O` [Galanin rat] in this work.

A pKi [2] of 8.91 was found for `CC[C@H](C)[C@H](NC(=O)[C@H](Cc1ccc(O)cc1)NC(=O)[C@H](Cc1c[nH]cn1)NC(=O)[C@H](CCCNC(=N)N)NC(=O)[C@@H]1CCCN1C(=O)CNC(=O)[C@H](CC(C)C)NC(=O)[C@H](CC(C)C)NC(=O)[C@H](Cc1ccc(O)cc1)NC(=O)CNC(=O)[C@H](C)NC(=O)[C@H](CO)NC(=O)[C@H](CC(N)=O)NC(=O)[C@H](CC(C)C)NC(=O)[C@@H](NC(=O)[C@H](Cc1c[nH]c2ccccc12)NC(=O)CN)[C@@H](C)O)C(=O)N[C@@H](CC(N)=O)C(=O)N[C@@H](CC(C)C)C(=O)N[C@H](C(=O)N[C@H](C(=O)N[C@@H](CCCNC(=N)N)C(=O)N[C@@H](CCC(N)=O)C(=O)N[C@@H](CCCNC(=N)N)C(=O)N[C@@H](Cc1ccc(O)cc1)C(N)=O)[C@@H](C)O)[C@@H](C)CC` [M32] in this work.

A pKi [3] of 8.45, a pKi [1] of 6.54 and a pKi [2] of 7.10 were found for H-GWTLNSAGYLLGPPPALALA-NH2 [M40] in this work.

Reference: BindingDB's records for doi:10.1074/jbc.273.36.23321 (Synaptic Pharmaceutical, 1998)
